Where a SMILES comes first, the peptide text is derived from it. [ ]: non-standard residue; d: D form.
What was measured:
[1] = system: peptide-forming enzyme (Mono S fraction enzyme); assay: Enzyme substrate specificity (1)-(10), (13), (14): peptide production; assay type: biochemical, Empedobacter brevis; parameters: key to Formed peptide: +: those peptides for which production was confirmed but which were unable to be quantified due to the absence of a standard; a trace amount; conditions: pH 9.0, 25° C., 3 hours; for Produced peptide: L-amino acid ester 100 mM, peptide (amine component) 150 mM
Method in brief: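 Mono S enzyme fraction in 100 mM borate buffer (pH 9.0) with 10 mM EDTA and 100 mM carboxy component (amino acid methyl esters or amides); amine components (L-glutamine, amino acids, amino acid amides or methylamine) at 150 mM, or 200 mM L-glutamine with varied esters. Reactions ran at 25° C for 2–3 hours; 0.1% Tween-80 added for Trp/Tyr-OMe.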

[2] = system: enzyme derived from Sphingobacterium sp. strain FERM BP-8124 (SP-Sepharose HP fraction enzyme); assay: Enzyme substrate specificity (11), (12): peptide production; assay type: biochemical; parameters: key to Produced peptide (Table 15-1) / Produced peptide (Table 15-3) / Produced peptide (Table 15-4): +: those peptides for which production was confirmed but which were unable to be quantified due to the absence of a standard; a trace amount; conditions: carboxy component 100 mM, 0.33 units enzyme, pH 9.0, 25° C., 1.5 hours; for Produced peptide (Table 15-1) / Produced peptide (Table 15-3) / Produced peptide (Table 16, oligopeptide) / Produced peptide (Table 15-4): amine component 150 mM; for Produced peptide (Table 15-2): L-Gln 150 mM; for Produced peptide (Table 15-4): amides and methylamine
Description: Substrate specificity was examined for enzyme derived from Sphingobacterium sp. strain FERM BP-8124 (Depositary institution: the independent administrative corporation, National Institute of Advanced Industrial Science and Technology, International Patent Organism Depositary, Address of depositary institution: Chuo Dai-6, 1-1 Higashi 1-Chome, Tsukuba-shi, Ibaraki-ken, Japan, International deposit date: […] The amounts of various peptides formed in this reaction are shown in Table 15. The “+” mark indicates those peptides for which production was confirmed but which were unable to be quantified due to the absence of a standard, while “tr” indicates a trace amount. Furthermore, Tween-80 was added to the reaction system to a final concentration of 0.1% in the case of using L-Tyr-OMe. In addition, hydrochloride salts were used for all carboxy components. Substrate specificity with respect to oligopeptide production was examined for enzyme derived from Sphingobacterium sp. strain FERM BP-8124 (Depositary institution: the independent administrative corporation, National Institute of Advanced Industrial Science and Technology, International Patent Organism Depositary, Address of depositary institution: Chuo Dai-6, 1-1 Higashi 1-Chome, Tsukuba-shi, Ibaraki-ken, Japan, International deposit date: […] The amounts of each oligopeptide formed in this reaction are shown in Table 16. Furthermore, hydrochloride salts were used for all the carboxy components.

[3] = 100 mM L-alanine methyl ester hydrochloride, L-amino acid 150 mM
[4] = L-amino acid methyl ester hydrochloride 100 mM, 150 mM L-glutamine
[5] = L-amino acid methyl ester hydrochloride 100 mM, L-amino acid 150 mM
[6] = L or D amino acid methyl ester hydrochloride 100 mM, L or D amino acid 150 mM

Compound: C[C@H](N)C(=O)N[C@@H](CCC(=O)O)C(=O)O [L-Ala-L-Glu] (H-Ala-Glu-OH)
- Formed peptide [1, 3]: 42.9 mM
- Produced peptide (Table 15-1) [2]: 39.1 mM

Compound: NC(=O)CC[C@H](NC(=O)[C@@H]1CCCN1)C(=O)O [L-Pro-L-Gln] (H-Pro-Gln-OH)
- Formed peptide [1, 4]: 2.2 mM
- Produced peptide (Table 15-2) [2]: 1.8 mM

Compound: C[C@@H](O)[C@H](N)C(=O)NCC(=O)O [L-Thr-Gly] (H-Thr-Gly-OH)
- Formed peptide [1, 5]: 9.4 mM
- Produced peptide (Table 15-3) [2]: 0.4 mM

Compound: L-Ala-L-Phe-Gly
- Produced peptide [1]: 43.7 mM
- Produced peptide (Table 16, oligopeptide) [2]: 34.0 mM

Compound: L-Ala-L-Ala-L-Ala-L-Ala
- Produced peptide [1]: 44.5 mM
- Produced peptide (Table 16, oligopeptide) [2]: 30.1 mM

Compound: L-Thr-Gly-Gly
- Produced peptide [1]: 83.0 mM
- Produced peptide (Table 16, oligopeptide) [2]: 8.4 mM

Compound: NCC(=O)N[C@@H](Cc1ccccc1)C(=O)O [Gly-L-Phe] (H-Gly-Phe-OH)
- Formed peptide [1, 5]: 44.0 mM
- Produced peptide (oligopeptide) ([1]; amount of enzyme 0.1 unit): 17.3 mM
- Produced peptide (Table 15-3) [2]: 20.0 mM

Compound: CNC(=O)CN [Gly-methylamine]
- Formed peptide ([1]; amino acid methyl ester hydrochloride 100 mM, methylamine 150 mM): 1.1 mM
- Produced peptide (Table 15-4) [2]: 1.0 mM

Compound: L-Ala-L-Ala-L-Ala-L-Ala-L-Ala
- Produced peptide [1]: 34.8 mM
- Produced peptide (Table 16, oligopeptide) [2]: 22.8 mM

Compound: CC(C)[C@H](N)C(=O)N[C@@H](CO)C(=O)O [L-Val-L-Ser] (H-Val-Ser-OH)
- Formed peptide [1, 5]: 30.8 mM
- Produced peptide (Table 15-3) [2]: 31.9 mM

Compound: NC(=O)CC[C@H](NC(=O)[C@@H](N)CC(=O)O)C(=O)O [α-L-Asp-L-Gln] (H-Asp-Gln-OH)
- Formed peptide [1, 4]: tr
- Produced peptide (Table 15-2) [2]: 0.05 mM

Compound: CC(C)[C@H](NC(=O)[C@@H](N)[C@@H](C)O)C(=O)O [L-Thr-L-Val] (H-Thr-Val-OH)
- Formed peptide [1, 5]: 0.7 mM
- Produced peptide (Table 15-3) [2]: 1.3 mM

Compound: C[C@H](N)C(=O)N[C@@H](CC(N)=O)C(=O)O [L-Ala-L-Asn] (H-Ala-Asn-OH)
- Formed peptide [1, 3]: 65.5 mM
- Produced peptide (Table 15-1) [2]: 52.3 mM

Compound: CC[C@H](C)[C@H](N)C(=O)N[C@@H](CCC(N)=O)C(=O)O [L-Ile-L-Gln] (H-Ile-Gln-OH)
- Formed peptide [1, 4]: 8.4 mM
- Produced peptide (Table 15-2) [2]: 6.4 mM

Compound: C[C@H](N)C(=O)N[C@@H](CC(=O)O)C(=O)O [L-Ala-L-Asp] (H-Ala-Asp-OH)
- Formed peptide [1, 3]: 2.1 mM
- Produced peptide (Table 15-1) [2]: 2.3 mM

Compound: C[C@H](N)C(=O)N[C@@H](Cc1ccccc1)C(N)=O [L-Ala-L-Phe-NH2]
- Formed peptide ([1]; L-alanine methyl ester hydrochloride 100 mM, L-amino acid amide hydrochloride 150 mM): 12.2 mM
- Produced peptide (Table 15-4) [2]: 27.1 mM

Compound: C[C@@H](N)C(=O)N[C@H](CO)C(=O)O [D-Ala-D-Ser] (H-[dA]-[dS]-OH)
- Formed peptide [1, 6]: 0.2 mM
- Produced peptide (Table 15-1) [2]: 5.5 mM

Compound: CSCC[C@H](NC(=O)[C@@H](N)CCCN=C(N)N)C(=O)O [L-Arg-L-Met] (H-Arg-Met-OH)
- Formed peptide [1, 5]: 0.7 mM
- Produced peptide (Table 15-3) [2]: tr

Compound: C[C@H](N)C(=O)N[C@H](CO)C(=O)O [L-Ala-D-Ser] (H-Ala-[dS]-OH)
- Formed peptide [1, 6]: 5.4 mM
- Produced peptide (Table 15-1) [2]: 3.3 mM

Compound: NC(=O)CC[C@H](NC(=O)[C@@H](N)Cc1ccc(O)cc1)C(=O)O [L-Tyr-L-Gln] (H-Tyr-Gln-OH)
- Formed peptide [1, 4]: 3.4 mM
- Produced peptide (Table 15-2) [2]: 0.6 mM

Compound: C[C@H](N)C(=O)N[C@H](C(=O)O)[C@@H](C)O [L-Ala-L-Thr] (H-Ala-Thr-OH)
- Formed peptide [1, 3]: 53.9 mM
- Produced peptide (Table 15-1) [2]: 47.3 mM
